pIC50: −log10 of the molar value. Calls of active or inactive are those of the source. No cut-off for these calls is given here.

Experiment [1] deals with MDA-MB-231. As to the kind of experiment: Antiproliferative activity against human MDA-MB-231 cells after 72 hrs by sulforhodamine B assay. The class given is functional, cell-based. As to conditions: MDA-MB-231, 72 h.
The subject of another experiment is MCF7. The experiment can be described thus: Antiproliferative activity against human MCF7 cells after 72 hrs by sulforhodamine B assay. The class given is functional, cell-based. The settings on record: MCF7, 72 h.
The test system of a further experiment is A549. As to the kind of experiment: Antiproliferative activity against human A549 cells after 72 hrs by sulforhodamine B assay. The settings on record: A549, 72 h. The class given is functional, cell-based. Background: In SRB staining, fixed cells bind dye roughly in proportion to their protein.
The subject of another experiment is KB. As to the kind of experiment: Antiproliferative activity against human KB cells after 72 hrs by sulforhodamine B assay. The experiment is classed as functional, cell-based.
Experiment [2] can be described thus: Antiproliferative activity against human KB-VIN cells after 72 hrs by sulforhodamine B assay. The experiment is classed as functional, cell-based. The settings on record: KBVIN.
Experiment [3] can be described thus: Inhibition of TrxR in human MDA-MB-231 cells measured after 72 hrs by colorimetric method. The experiment is classed as cell-based.
The test system of experiment [4] is MDA-MB-231. The experiment can be described thus: Induction of reactive oxygen species generation in human MDA-MB-231 cells measured after 24 hrs by DCFH-DA probe based flow cytometry. The experiment is classed as functional, cell-based. In general terms: In flow cytometry, cells or beads pass a laser one at a time.
A short description of experiment [5]: Selectivity ratio of IC50 for human A549 cells to IC50 for human MDA-MB-231 cells. The experiment is classed as functional.

With `COc1ccc(/C=C2\CCC=CC2=O)c(C)c1`, the pIC50 in the experiment with MDA-MB-231 [1] was 5.97; in the experiment with MCF7 it was 5.74; in the experiment with A549, 5.81; in the experiment with KB, 5.88; in experiment [2], 5.80; in experiment [3], 6.34. For the same compound, the result in the experiment on MDA-MB-231 [4] was Active.

Consider `COc1cc(OC)c(/C=C2\CCC=CC2=O)c(OC)c1`, for which the pIC50 in the experiment with MDA-MB-231 [1] is 5.29; in the experiment on MCF7, 5.04; in the experiment with A549, 5.33; with KB, 5.24; in experiment [2], 5.19.

Regarding `COc1ccc(/C=C2\CCC=CC2=O)cc1`, the pIC50 was 5.79 with MDA-MB-231 [1]; 5.59 with MCF7; 5.84 in the experiment on A549; 5.81 in the experiment on KB; 5.53 in experiment [2].

On to `O=C1C=CCC/C1=C\c1ccc(-c2ccccc2)cc1`, for which the pIC50 was 6.17 with MDA-MB-231 [1]; 5.30 in the experiment on MCF7; 5.44 in the experiment on A549; 5.63 in the experiment with KB; 5.32 in experiment [2].

Regarding `COc1cc(/C=C2\CN(C(=O)OCc3ccccc3)C=CC2=O)cc(OC)c1OC`, the results for the pIC50 in the experiment on MDA-MB-231 [1], in the experiment on MCF7 and in the experiment with A549 were 4.62, under 4.60 and 4.67, respectively.

Take `COc1cc(/C=C2\CCC=CC2=O)cc(OC)c1O`: the pIC50 with MDA-MB-231 [1] is 5.79; in the experiment on MCF7, 5.66; in the experiment with A549 it was 5.81; in the experiment with KB it was 5.82; in experiment [2], 5.51.

`COc1ccc(/C=C2\CCC=CC2=O)cc1[N+](=O)[O-]`: the pIC50 in the experiment with MDA-MB-231 [1] was 6.23; in the experiment with MCF7, 5.77; in the experiment with A549, 5.83; with KB, 5.87; in experiment [2], 5.79; in experiment [3], 6.20. The outcome in the experiment on MDA-MB-231 [4] was Active.

`O=C1C=CCC/C1=C\c1cnc2ccccc2c1`: the negative-log IC50 (pIC50) was 6.19 in the experiment with MDA-MB-231 [1]; 5.28 with MCF7; 5.35 in the experiment on A549; 6.04 in the experiment with KB; 5.27 in experiment [2].

For the compound `COc1cc(/C=C2\CCC=CC2=O)cc2ccccc12`, the pIC50 was 5.79 in the experiment on MDA-MB-231 [1]; 5.44 in the experiment with MCF7; 5.79 in the experiment on A549; 5.82 in the experiment with KB; 5.58 in experiment [2].

Regarding `COc1cc(/C=C2\CN(S(=O)(=O)c3ccccc3)C=CC2=O)cc(OC)c1OC`, the figures for the pIC50 with MDA-MB-231 [1], in the experiment with MCF7 and in the experiment with A549 were 4.63, under 4.60 and 4.65, respectively.

In the case of `O=C1C=CCC/C1=C\c1ccccc1OC(F)(F)F`, in the experiment with MDA-MB-231 [1], the pIC50 was 6.00.

With `COc1ccc(/C=C2\CCC=CC2=O)cc1OC`, the pIC50 in the experiment with MDA-MB-231 [1] is 6.19; in the experiment with MCF7 it was 5.28; in the experiment with A549, 5.33; with KB, 6.05; in experiment [2] it was 5.27.

Turning to `O=C1C=CCC/C1=C\c1cccc(OC(F)(F)F)c1`, the negative logarithm of the IC50 (pIC50) in the experiment with MDA-MB-231 [1] is 6.09.

`COc1cc(/C=C2\CNC=CC2=O)cc(OC)c1OC`: the pIC50 in the experiment with MDA-MB-231 [1], in the experiment with MCF7 and in the experiment on A549 was under 4.60 in each case.

As to `COc1cccc(/C=C2\CCC=CC2=O)c1OC`, the pIC50 in the experiment on MDA-MB-231 [1] is 6.21; in the experiment with MCF7, 5.33; in the experiment with A549, 5.29; with KB it was 5.41; in experiment [2], 5.28. The “Ratio IC50” value in experiment [5] turned out to be 8.

With `COc1cc(/C=C2\CN(S(=O)(=O)c3ccc(C)cc3)C=CC2=O)cc(OC)c1OC`, the pIC50 was 4.65 with MDA-MB-231 [1], 4.72 in the experiment with MCF7 and 4.69 with A549.

Regarding `Cn1cc(/C=C2\CCC=CC2=O)c2ccccc21`, the pIC50 in the experiment on MDA-MB-231 [1] was 5.47; with MCF7 it was 5.22; with A549 it was 5.31; with KB, 5.35; in experiment [2] it was 5.30.

Consider `CCOc1ccc(/C=C2\CCC=CC2=O)cc1OC`, for which the pIC50 in the experiment on MDA-MB-231 [1] was 6.22; in the experiment with MCF7 it was 5.40; with A549, 5.44; in the experiment with KB, 5.89; in experiment [2], 5.32.

Turning to `COc1cc(/C=C2\CCC=C(I)C2=O)cc(OC)c1OC`, the pIC50 with MDA-MB-231 [1] was 6.17; in the experiment with MCF7 it was 5.27; in the experiment with A549 it was 5.31; in the experiment on KB, 5.44; in experiment [2], 5.27.

Regarding `O=C1C=CCC/C1=C\c1ccc2c(c1)OCO2`, the pIC50 with MDA-MB-231 [1] was 5.78; in the experiment with MCF7 it was 5.64; with A549 it was 5.82; in the experiment on KB, 5.78; in experiment [2] it was 5.66.

Regarding `COc1cccc(/C=C2\CCC=CC2=O)c1`, the pIC50 in the experiment with MDA-MB-231 [1] is 5.97; in the experiment on MCF7, 5.69; with A549, 5.83; in the experiment on KB, 5.81; in experiment [2], 5.59.

Turning to `COc1cc(/C=C2\CCC=CC2=O)cc(OC)c1`, the pIC50 is 6.22 in the experiment on MDA-MB-231 [1]; 5.34 in the experiment on MCF7; 5.32 with A549; 5.44 in the experiment on KB; 5.31 in experiment [2].

For the compound `CC(=O)n1cc(/C=C2\CCC=CC2=O)c2ccccc21`, the pIC50 in the experiment with MDA-MB-231 [1] was 6.03; in the experiment with MCF7, 5.26; in the experiment with A549, 5.32; in the experiment with KB, 5.35; in experiment [2], 5.30.

For `O=C1C=CCC/C1=C\c1cccnc1`, the pIC50 was 5.98 in the experiment with MDA-MB-231 [1]; 5.69 in the experiment with MCF7; 5.82 in the experiment with A549; 5.82 with KB; 5.55 in experiment [2].

As to `COc1cc(/C=C2\CN(S(C)(=O)=O)C=CC2=O)cc(OC)c1OC`, the figures for the pIC50 in the experiment with MDA-MB-231 [1], in the experiment on MCF7 and with A549 were 4.80, 4.75 and 4.73, respectively.

Take `COc1cc(/C=C2\CCC=CC2=O)cc(OC)c1OC`: the pIC50 in the experiment with MDA-MB-231 [1] was 6.17; in the experiment on MCF7, 5.28; in the experiment with A549 it was 5.37; in the experiment with KB it was 6.06; in experiment [2], 5.32; in experiment [3], 6.96. In the experiment with MDA-MB-231 [4], the outcome was Active.

As a reminder, the pIC50 is −log10 of the IC50, conventionally taken in molar units. High values mean a small IC50, low ones a large IC50.

The values above are taken from ChEMBL document CHEMBL4765408, “Design and synthesis of benzylidenecyclohexenones as TrxR inhibitors displaying high anticancer activity and inducing ROS, apoptosis, and autophagy” (Eur J Med Chem, 2020).
